Reference: ChEMBL document CHEMBL4130471, “Design and synthesis of tranylcypromine derivatives as novel LSD1/HDACs dual inhibitors for cancer treatment” (Eur J Med Chem, 2017)

Tests used:
PC-3 = test: cells; assay type: functional, cell-based; conditions: Homo sapiens, PC-3, 72 h
Description: Antiproliferative activity against human PC3 cells incubated for 72 hrs by MTT assay

MGC-803 [1] = test: cells; assay type: functional, cell-based; conditions: Homo sapiens, MGC-803, 72 h
Description: Antiproliferative activity against human MGC803 cells incubated for 72 hrs by MTT assay

[2] = biological target: T1, Amine oxidase [flavin-containing] B (Homo sapiens, UniProt P27338)
T1 sequence (P27338 whole entry): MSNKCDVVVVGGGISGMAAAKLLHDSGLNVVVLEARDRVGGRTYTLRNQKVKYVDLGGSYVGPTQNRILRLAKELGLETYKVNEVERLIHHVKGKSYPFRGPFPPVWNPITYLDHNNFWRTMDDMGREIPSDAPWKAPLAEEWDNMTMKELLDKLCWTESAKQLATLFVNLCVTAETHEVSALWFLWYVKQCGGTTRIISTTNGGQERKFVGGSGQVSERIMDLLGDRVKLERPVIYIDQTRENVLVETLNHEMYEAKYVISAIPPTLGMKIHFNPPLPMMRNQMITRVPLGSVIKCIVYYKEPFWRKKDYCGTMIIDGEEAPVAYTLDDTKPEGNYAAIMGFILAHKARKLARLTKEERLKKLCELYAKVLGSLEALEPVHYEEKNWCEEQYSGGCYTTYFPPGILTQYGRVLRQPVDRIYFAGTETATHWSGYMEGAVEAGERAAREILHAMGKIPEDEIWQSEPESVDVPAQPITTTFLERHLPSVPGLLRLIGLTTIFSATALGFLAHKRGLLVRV
Description: Inhibition of MAOB (unknown origin) using beetle luciferin as substrate by MAO-Glo assay

Histone deacetylase 1 = Histone deacetylase 1 (Homo sapiens, UniProt Q13547); test: Inhibition of C-terminal His-tagged and C-terminal FLAG-tagged human HDAC1 expressed in baculovirus expression system using Ac-peptide substrate incubated for 15 mins by fluorescence based assay
Histone deacetylase 2 = Histone deacetylase 2 (Homo sapiens, UniProt Q92769)
Description: Inhibition of C-terminal His-tagged full length human HDAC2 expressed in baculovirus expression system using Ac-peptide substrate incubated for 15 mins by fluorescence based assay

A549 = test: cells; assay type: functional, cell-based; conditions: Homo sapiens, A549, 72 h
Description: Antiproliferative activity against human A549 cells incubated for 72 hrs by MTT assay

MGC-803 [3] = test: Potency index, ratio of IC50 for SAHA to IC50 for test compound for antiproliferative activity against human MGC803 cells incubated for 72 hrs by MTT assay; assay type: functional
[4] = biological target: T2, Lysine-specific histone demethylase 1A (Homo sapiens, UniProt O60341); test: Inhibition of LSD1 in human MGC803 cells assessed as increase in cellular H3K9me2 levels incubated for 24 hrs by Western blot; assay type: cell-based
MGC-803 [5] = test: Induction of apoptosis in human MGC803 cells assessed as viable cells level at 2.5 uM incubated for 24 hrs by Annexin-V-FITC/propidium iodide staining based flow cytometry (reference value: 94.6%); assay type: functional
MGC-803 [6] = test: Induction of apoptosis in human MGC803 cells assessed as early apoptotic cells level at 2.5 uM incubated for 24 hrs by Annexin-V-FITC/propidium iodide staining based flow cytometry (reference value: 4.37%); assay type: functional
MGC-803 [7] = test: Induction of apoptosis in human MGC803 cells assessed as viable cells level at 5 uM incubated for 24 hrs by Annexin-V-FITC/propidium iodide staining based flow cytometry (reference value: 94.6%); assay type: functional
MGC-803 [8] = test: Induction of apoptosis in human MGC803 cells assessed as early apoptotic cells level at 5 uM incubated for 24 hrs by Annexin-V-FITC/propidium iodide staining based flow cytometry (reference value: 4.37%); assay type: functional
MGC-803 [9] = test: Induction of apoptosis in human MGC803 cells assessed as necrotic cells level at 5 uM incubated for 24 hrs by Annexin-V-FITC/propidium iodide staining based flow cytometry (reference value: 0.596%); assay type: functional
MGC-803 [10] = test: Induction of apoptosis in human MGC803 cells assessed as early apoptotic cells level at 7.5 uM incubated for 24 hrs by Annexin-V-FITC/propidium iodide staining based flow cytometry (reference value: 4.37%); assay type: functional
MGC-803 [11] = test: Induction of apoptosis in human MGC803 cells assessed as late apoptotic cells level at 7.5 uM incubated for 24 hrs by Annexin-V-FITC/propidium iodide staining based flow cytometry (reference value: 0.447%); assay type: functional
MGC-803 [12] = test: Induction of apoptosis in human MGC803 cells assessed as necrotic cells level at 7.5 uM incubated for 24 hrs by Annexin-V-FITC/propidium iodide staining based flow cytometry (reference value: 0.596%); assay type: functional
MGC-803 [13] = test: Induction of apoptosis in human MGC803 cells assessed as necrotic cells level at 2.5 uM incubated for 48 hrs by Annexin-V-FITC/propidium iodide staining based flow cytometry (reference value: 0.242%); assay type: functional
MGC-803 [14] = test: Induction of apoptosis in human MGC803 cells assessed as early apoptotic cells level at 5 uM incubated for 48 hrs by Annexin-V-FITC/propidium iodide staining based flow cytometry (reference value: 7.35%); assay type: functional
MGC-803 [15] = test: Induction of apoptosis in human MGC803 cells assessed as necrotic cells level at 5 uM incubated for 48 hrs by Annexin-V-FITC/propidium iodide staining based flow cytometry (reference value: 0.242%); assay type: functional
MGC-803 [16] = test: Induction of apoptosis in human MGC803 cells assessed as viable cells level at 7.5 uM incubated for 48 hrs by Annexin-V-FITC/propidium iodide staining based flow cytometry (reference value: 92.3%); assay type: functional
MGC-803 [17] = test: Induction of apoptosis in human MGC803 cells assessed as early apoptotic cells level at 7.5 uM incubated for 48 hrs by Annexin-V-FITC/propidium iodide staining based flow cytometry (reference value: 7.35%); assay type: functional
MGC-803 [18] = test: Induction of apoptosis in human MGC803 cells assessed as late apoptotic cells level at 7.5 uM incubated for 48 hrs by Annexin-V-FITC/propidium iodide staining based flow cytometry (reference value: 0.121%); assay type: functional
MGC-803 [19] = test: Induction of mitochondrial membrane potential loss in human MGC803 cells incubated for 48 hrs by JC1 staining based flow cytometry; assay type: functional, cell-based
[20] = biological target: T2, Lysine-specific histone demethylase 1A
Description: Inhibition of recombinant LSD1 (157 to 852 amino acids) (unknown origin) expressed in Escherichia coli BL21(DE) using H3K4me2 substrate by amplex red and horseradish peroxidase based fluorescence assay

[21] = biological target: T3, Amine oxidase [flavin-containing] A (Homo sapiens, UniProt P21397)
T3 sequence (P21397 whole entry): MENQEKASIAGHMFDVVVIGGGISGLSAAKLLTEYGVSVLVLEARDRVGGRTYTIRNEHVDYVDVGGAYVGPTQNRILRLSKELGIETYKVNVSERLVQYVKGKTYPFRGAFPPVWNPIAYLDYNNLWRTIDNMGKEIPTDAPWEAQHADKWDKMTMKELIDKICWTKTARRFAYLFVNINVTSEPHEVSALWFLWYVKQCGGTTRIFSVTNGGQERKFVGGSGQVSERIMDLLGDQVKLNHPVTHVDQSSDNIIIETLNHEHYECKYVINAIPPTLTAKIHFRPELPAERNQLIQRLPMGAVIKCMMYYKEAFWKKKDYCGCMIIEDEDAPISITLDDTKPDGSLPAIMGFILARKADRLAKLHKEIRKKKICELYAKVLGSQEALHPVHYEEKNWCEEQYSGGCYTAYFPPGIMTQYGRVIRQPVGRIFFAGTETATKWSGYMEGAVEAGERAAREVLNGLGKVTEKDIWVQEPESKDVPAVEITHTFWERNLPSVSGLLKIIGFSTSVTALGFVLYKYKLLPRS
Description: Inhibition of MAOA (unknown origin) using beetle luciferin as substrate by MAO-Glo assay

Sequence of Histone deacetylase 2 (Q92769 whole entry): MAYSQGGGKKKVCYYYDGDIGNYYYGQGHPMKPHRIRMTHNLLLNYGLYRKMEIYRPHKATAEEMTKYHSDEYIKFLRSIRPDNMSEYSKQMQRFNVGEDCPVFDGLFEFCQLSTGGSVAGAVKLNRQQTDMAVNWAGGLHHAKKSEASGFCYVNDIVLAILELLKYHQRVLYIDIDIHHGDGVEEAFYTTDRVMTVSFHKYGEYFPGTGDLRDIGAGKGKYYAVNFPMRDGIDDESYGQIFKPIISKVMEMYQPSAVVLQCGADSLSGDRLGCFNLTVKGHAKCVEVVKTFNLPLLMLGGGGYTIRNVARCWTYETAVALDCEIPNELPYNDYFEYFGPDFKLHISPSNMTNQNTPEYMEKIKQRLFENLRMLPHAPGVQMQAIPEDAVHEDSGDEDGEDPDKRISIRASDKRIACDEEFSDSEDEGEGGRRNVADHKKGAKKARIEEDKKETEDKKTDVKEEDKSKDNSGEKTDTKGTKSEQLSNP
Sequence of Histone deacetylase 1 (Q13547 whole entry): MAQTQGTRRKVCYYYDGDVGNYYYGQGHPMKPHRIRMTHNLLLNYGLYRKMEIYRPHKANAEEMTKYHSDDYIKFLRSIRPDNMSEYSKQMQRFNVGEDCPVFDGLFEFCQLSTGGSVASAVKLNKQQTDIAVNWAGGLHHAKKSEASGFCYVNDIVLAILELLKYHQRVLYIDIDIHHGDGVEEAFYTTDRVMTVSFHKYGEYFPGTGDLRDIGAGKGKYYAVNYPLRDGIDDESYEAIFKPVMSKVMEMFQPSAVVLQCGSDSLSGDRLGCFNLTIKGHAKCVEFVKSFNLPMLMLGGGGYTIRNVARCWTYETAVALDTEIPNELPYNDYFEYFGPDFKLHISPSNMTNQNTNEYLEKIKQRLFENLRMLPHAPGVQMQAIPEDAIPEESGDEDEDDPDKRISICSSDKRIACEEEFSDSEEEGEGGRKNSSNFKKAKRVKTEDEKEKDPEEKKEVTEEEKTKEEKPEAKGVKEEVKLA

Work on `O=C(CCCCCCNC(=O)c1ccc(CNC2(c3ccccc3)CC2)cc1)NO` yielded an IC50 (PC-3) of 5480 nM, an IC50 (MGC-803 [1]) of 810 nM and an IC50 [2] of 87100 nM. The IC50 (Histone deacetylase 1) was 15 nM, the IC50 (Histone deacetylase 2) was 23 nM and the IC50 (A549) was 1340 nM. For the same molecule, the “Ratio IC50” value (MGC-803 [3]) was 10, the inhibition [4] was “Dose-dependent effect” and the Activity (MGC-803 [5]) was 72%. The Activity (MGC-803 [6]) was 22.5%, the Activity (MGC-803 [7]) was 60% and the Activity (MGC-803 [8]) was 26.2%. For the same molecule, the Activity (MGC-803 [9]) was 2.82%, the Activity (MGC-803 [10]) was 31.7% and the Activity (MGC-803 [11]) was 10.9%. The Activity (MGC-803 [12]) was 2.71%, the Activity (MGC-803 [13]) was 2.2% and the Activity (MGC-803 [14]) was 42%. The Activity (MGC-803 [15]) was 2.21%, the Activity (MGC-803 [16]) was 7.42% and the Activity (MGC-803 [17]) was 41.4%. For the same molecule, the Activity (MGC-803 [18]) was 49.6%, the Activity (MGC-803 [19]) was “Dose-dependent effect” and the IC50 [20] was 1200 nM. The IC50 [21] was 21100 nM.
